Values quoted from earlier work in patent US10202620B2, “Synthesis of olefinic alcohols via enzymatic terminal hydroxylation” (PROVIVI, INC., priority 2014, dated 2019).

What was measured:
CYP52A3 = conditions: terminal hydroxylation, by alkane/FA chain length
CYP52A4 = target: T1, CYP52A4 (Candida maltosa, UniProt P16141); conditions: terminal hydroxylation, by alkane/FA chain length
T1 sequence (P16141 1-538): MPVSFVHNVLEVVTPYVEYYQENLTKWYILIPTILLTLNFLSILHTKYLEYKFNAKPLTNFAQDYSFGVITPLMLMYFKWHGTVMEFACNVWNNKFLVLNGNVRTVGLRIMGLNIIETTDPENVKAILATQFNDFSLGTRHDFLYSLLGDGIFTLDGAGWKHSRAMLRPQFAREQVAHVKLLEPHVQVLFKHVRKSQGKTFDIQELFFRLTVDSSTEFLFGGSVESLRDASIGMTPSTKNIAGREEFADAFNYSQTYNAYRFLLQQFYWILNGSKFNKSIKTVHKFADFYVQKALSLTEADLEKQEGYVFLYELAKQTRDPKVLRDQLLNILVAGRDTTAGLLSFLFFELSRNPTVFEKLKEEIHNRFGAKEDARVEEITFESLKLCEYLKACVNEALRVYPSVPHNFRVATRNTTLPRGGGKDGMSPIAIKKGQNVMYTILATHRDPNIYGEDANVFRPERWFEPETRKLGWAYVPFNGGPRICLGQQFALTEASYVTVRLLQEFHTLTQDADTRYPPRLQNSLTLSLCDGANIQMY

alkB2 Gordonia sp TF6 = conditions: terminal hydroxylation, by alkane/FA chain length; 100% relative activity obtained with hexane
LadA = target: T2, LadA (Geobacillus thermodenitrificans, UniProt A4IU28); conditions: terminal hydroxylation, by alkane/FA chain length
T2 sequence (A4IU28 1-440): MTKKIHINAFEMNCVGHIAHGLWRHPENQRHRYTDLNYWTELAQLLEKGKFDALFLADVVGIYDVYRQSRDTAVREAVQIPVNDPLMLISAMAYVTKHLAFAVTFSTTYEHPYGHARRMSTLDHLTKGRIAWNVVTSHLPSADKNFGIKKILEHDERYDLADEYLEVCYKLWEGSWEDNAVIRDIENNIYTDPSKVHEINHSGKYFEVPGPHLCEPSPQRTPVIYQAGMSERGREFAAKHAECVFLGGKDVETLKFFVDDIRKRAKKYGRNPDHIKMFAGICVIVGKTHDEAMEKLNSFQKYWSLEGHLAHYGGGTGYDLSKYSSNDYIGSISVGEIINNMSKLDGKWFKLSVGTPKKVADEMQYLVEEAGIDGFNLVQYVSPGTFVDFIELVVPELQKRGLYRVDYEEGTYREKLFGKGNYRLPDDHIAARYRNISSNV

AlkB P. putida GPo1 = target: T3, AlkB P. putida GPo1 (Ectopseudomonas oleovorans, UniProt P12691); conditions: terminal hydroxylation, by alkane/FA chain length
T3 sequence (P12691 1-401): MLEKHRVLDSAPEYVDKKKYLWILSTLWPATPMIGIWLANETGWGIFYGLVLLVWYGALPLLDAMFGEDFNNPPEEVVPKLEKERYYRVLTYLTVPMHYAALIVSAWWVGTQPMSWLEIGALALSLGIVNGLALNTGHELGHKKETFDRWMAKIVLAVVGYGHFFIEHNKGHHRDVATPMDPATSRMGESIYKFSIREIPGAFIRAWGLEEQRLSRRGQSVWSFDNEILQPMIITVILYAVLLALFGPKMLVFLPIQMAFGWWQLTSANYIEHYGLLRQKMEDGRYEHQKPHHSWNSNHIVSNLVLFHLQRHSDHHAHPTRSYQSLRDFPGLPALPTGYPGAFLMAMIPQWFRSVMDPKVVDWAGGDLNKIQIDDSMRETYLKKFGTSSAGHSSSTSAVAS

CYP153A P. sp. = conditions: terminal hydroxylation, by alkane/FA chain length
CYP153A16 = conditions: terminal hydroxylation, by alkane/FA chain length

Structure (SMILES)	Relative activity CYP52A3 (Scheller et al., 1996, Arch. Biochem Biophys. 328: 245-254) (CYP52A3)	Relative activity CYP52A4 (Scheller et al., 1996, Arch. Biochem Biophys. 328: 245-254) (CYP52A4)	Relative activity alkB2 Gordonia sp TF6* (Fujii et al., 2004, Biosci. Biotechnol. Biochem. 68: 2171-2177) (alkB2 Gordonia sp TF6)	Relative activity LadA (Feng et al., 2007, Proc. Natl. Acad. Sci. U.S.A. 104: 5602-5607) (LadA)	Relative activity AlkB P. putida GPo1 (Vanbeilen et al., 1994, Enzyme Microb. Technol. 16: 904-911) (AlkB P. putida GPo1)	Relative activity CYP153A P. sp. (Scheps et al., 2011, Org. Biomol. Chem. 9: 6727-6733) (CYP153A P. sp.)	Relative activity CYP153A6 (Funhoff et al., 2006, J. Bacteriol. 188: 5220-5227) (CYP153A6)	Relative activity CYP153A16 (Scheps et al., 2011, Org. Biomol. Chem. 9: 6727-6733) (CYP153A16)	other results
CCCCCCCCCCCC [Strain C12]	41	37	34%						
CCCCCCCCCCCCCCC [Strain C15]				83					
CCCCCCCCCCCCCCCC(=O)O [C16 FA]	35	18							Relative activity CYP52A21 (Kim et al., 2007, Arch. Biochem. Biophys. 464: 213-220) (CYP52A21): 29
CCCCCCCCCCC [Strain C11]			48%		6	<6	1	<8	
CCCCCCCCCC [Strain C10]			66%		60	60	23	13	
CCCCCCCCC [Strain C9]			63%		100	69	82	29	
CCCCCCCCCCCCCCCCCCCCCC [Strain C22]				74					
CCCCCCCCCCCCCCCCCCCCCCCC [Strain C24]				65					
CCCCCCCC [Strain C8]			72%		95	100	100	100	
CCCCCCCCCCCCCCCCCC [Strain C18]	48	20		78					
CCCCCCCCCCCCCCCCCC(=O)O [C18 FA]	30	1							
CCCCCCCCCCCCCCCC [Strain C16]	100	33		100					
